Reference: patent US20090275539A1, “Nuclear Transcription Factors Regulators” (CTG PHARMA S.R.L., priority 2004, published 2009)

Assays:
heme oxygenase-1 (OH-1) = experiment: Zymosan-induced OH-1 protein expression in Raw 264.7 macrophages (western blot); format: cell-based, murine; settings: for OH-1 protein expression, band intensity: zymosan-stimulated Raw 264.7, 18 hrs
Protocol: (§1) For the screening approach it was decided to test the compounds object of the present invention and fulfilling the structural general criteria previously described for heme oxygenase-1 (OH-1) and inducible nitric oxide synthase (iNOS). The enzyme tests were performed as described by Vicente A M et al. (Br. J. Pharmacol. 2001, 133, 920-6). The formation of both these two enzymes was associated with the activation of transcription factors, and NF-kB particularly.
(§2) In brief, Raw 264.7 murine macrophage cell line were maintained in a proper culture medium supplemented with 10% fetal bovine serum, 2 mM L-glutamine and penicillin/streptomycin. Suspensions of zymosan A from Saccharomyces cerevisiae in saline were used. After incubation with zymosan and/or test compounds for 18 hrs, cells supernatants were collected to measure protein expression, by western blot analysis. After incubation, macrophages were lysed in 100 microliters of buffer (1% Triton X-100, 1% deoxicholic acid, 20 mM NaCl and 25 mM Tris, pH 7.4) and then centrifuged at 4° C. for 5 min at 10,000×g. The protein content was determined by the Bradford method using bovine serum albumin as standard. Cell lysate (40 micrograms of protein) was mixed with Laemmli sample buffer under reducing conditions. […] Membranes were incubated with specific antibodies: polyclonal antibody against iNOS (1/1000, Cayman Chemical) and anti-OH-1 monoclonal antibody (1/2000, Stressgen). Blots were washed and incubated with peroxidase-conjugated goat IgG (1/20,000). The immunoreactive bands were visualized by an enhanced chemiluminescence system and band intensity quantitated using computer-assisted densitometry.

[1] = tested on: inducible nitric oxide synthase (iNOS); experiment: Zymosan-induced iNOS protein expression in Raw 264.7 macrophages (western blot); format: cell-based, murine; settings: for INOS protein expression, band intensity: zymosan-stimulated Raw 264.7, 18 hrs
Protocol: as §1, §2

IL-6 = experiment: Expression of NF-kB regulated cytokine IL-6 in HeLa cells (ELISA); format: cell-based; settings: for Inhibition of the production of IL-6: after 120 minutes
Protocol: (§3) The cells were stimulated with 100 μmol of compound described in example 6 with TNF (200 E/ml) or with PMA (50 ng/ml) and the concentration of IL-6 or IL-8 was measured in the cell supernatant at various interval using ELISA (British Biotechnology Products Ltd.).

IL-8 = experiment: Expression of NF-kB regulated cytokine IL-8 in HeLa cells (ELISA); format: cell-based; settings: for IL-8 concentration in cell supernatant: 120′; for Inhibition of the production of IL-8: after 120 minutes
Protocol: as §3

NF-kB = experiment: NF-kB-CAT reporter gene assay (CAT activity); format: cell-based; settings: test compound 100 μm; for NF-kB activity: % of CAT synthesis, TNF-stimulated: human TNF alpha 100 ng/ml
Protocol: The NF-kB-CAT reporter gene cell line (Lenardo M J et al., Cell 58, 227-9, 1989) and. L29/Ji6 cells (Fratelli M et al, Antioxidants & Redox Signalling 5, 229-235, 2003) were prepared as previously described. Human TNF alpha (100 ng/ml) was used. The chloramphenicol-acetyltransferase (CAT) activity was measured by adding 40 microliters of Tris-HCl buffer (250 mM, ph 7.5) and D-threo-[dichloroacetyl]1,2 ^14C chloramphenicol (10 microliters, 8.3×10^−2 mCi/sample) The reaction was started by the addition of n-butyryl coenzyme A. After 2 h at 37° C., the reaction was stopped by extraction with hexane/xylene (2:1). The upper organic phase containing the reaction product was then recovered, and radioactivity was counted on a beta-counter. The activity on NF-kB was expressed as […].

[2] = zymosan-stimulated Raw 264.7, summary of table I

Compound: CC(c1cc2ccccc2s1)N(O)C(N)=O (stereo not shown) [Zileuton, zileuton]
- OH-1 protein expression, band intensity (heme oxygenase-1 (OH-1); concentration 10 μmol): 125 percentage with respect to zymosan
- INOS protein expression, band intensity ([1]; concentration 10 μmol): 112 percentage with respect to zymosan

Compound: CC(=O)N[C@@H](CS)C(=O)O [N-acetylcysteine]
- OH-1 protein expression, band intensity (heme oxygenase-1 (OH-1); concentration 100 μmol): 44 percentage with respect to zymosan
- INOS protein expression, band intensity ([1]; concentration 100 μmol): 80 percentage with respect to zymosan

Compound: CC(=O)Sc1ccccc1C(=O)Oc1ccc(CO[N+](=O)[O-])cc1 [ATANPE, acetyl thiosalicylic acid 4-(nitroxymethyl)phenyl ester]
- IL-6 concentration in cell supernatant (IL-6; PMA (50 ng/ml) + 100 μmol compound, 15′): 920 pg/mL
- IL-6 concentration in cell supernatant (IL-6; PMA (50 ng/ml) + 100 μmol compound, 120′): 3138 pg/mL
- IL-6 concentration in cell supernatant (IL-6; TNF (200 E/ml) + 100 μmol compound, 15′): 945 pg/mL
- IL-6 concentration in cell supernatant (IL-6; TNF (200 E/ml) + 100 μmol compound, 120′): 1738 pg/mL
- Inhibition of the production of IL-6 (IL-6; first of two values printed with '(TNF stimulation)'): 87%
- Inhibition of the production of IL-6 (IL-6; second of two values printed with '(TNF stimulation)'): 74%
- OH-1 protein expression, band intensity (heme oxygenase-1 (OH-1); concentration 10 μmol): 293 percentage with respect to zymosan
- Effect on OH-1 production (in words) (heme oxygenase-1 (OH-1); [2]): stimulate OH-1 production
- IL-8 concentration in cell supernatant (IL-8; PMA (50 ng/ml) + 100 μmol compound): 12 pg/mL
- IL-8 concentration in cell supernatant (IL-8; TNF (200 E/ml) + 100 μmol compound): 6 pg/mL
- Inhibition of the production of IL-8 (IL-8; first of two values printed with '(PMA stimulation)'): 90%
- Inhibition of the production of IL-8 (IL-8; second of two values printed with '(PMA stimulation)'): 97%
- NF-kB activity: % of CAT synthesis, Basal (NF-kB): 31%
- NF-kB activity: % of CAT synthesis, TNF-stimulated (NF-kB): 26%
- INOS protein expression, band intensity ([1]; concentration 10 μmol): 48 percentage with respect to zymosan
- Effect on iNOS formation (in words) [1, 2]: inhibit iNOS formation

Compound: CS(=O)(=O)Nc1ccc([N+](=O)[O-])cc1OC1CCCCC1 [NS398]
- OH-1 protein expression, band intensity (heme oxygenase-1 (OH-1); concentration 10 μmol): 72 percentage with respect to zymosan
- INOS protein expression, band intensity ([1]; concentration 10 μmol): 120 percentage with respect to zymosan

Compound: COc1ccc2c(c1)c(CC(=O)O)c(C)n2C(=O)c1ccc(Cl)cc1 [Indomethacin, indomethacin]
- OH-1 protein expression, band intensity (heme oxygenase-1 (OH-1); concentration 1 μmol): 65 percentage with respect to zymosan
- INOS protein expression, band intensity ([1]; concentration 1 μmol): 78 percentage with respect to zymosan

Compound: CC(=O)Oc1ccccc1C(=O)O [Aspirin, reference compound]
- NF-kB activity: % of CAT synthesis, Basal (NF-kB): 100%
- NF-kB activity: % of CAT synthesis, TNF-stimulated (NF-kB): 92%

Compound: C[C@@H]1C[C@H]2[C@@H]3CCC4=CC(=O)C=C[C@]4(C)[C@@]3(F)[C@@H](O)C[C@]2(C)[C@@]1(O)C(=O)CO [Dexamethasone, dexamethasone]
- OH-1 protein expression, band intensity (heme oxygenase-1 (OH-1); concentration 1 μmol): 20 percentage with respect to zymosan
- INOS protein expression, band intensity ([1]; concentration 1 μmol): 85 percentage with respect to zymosan
